Measured values published in paper PMC10866072, “Design, synthesis, molecular modelling and biological evaluation of novel 6-amino-5-cyano-2-thiopyrimidine derivatives as potent anticancer agents against leukemia and apoptotic inducers” (Journal of Enzyme Inhibition and Medicinal Chemistry, 2024).

What was measured:
CCRF-CEM = type: cell-based; settings: one dose 10^-5 M, 48 h
HL-60(TB) = type: cell-based; settings: one dose 10^-5 M, 48 h
K-562 = type: cell-based; settings: one dose 10^-5 M, 48 h
MOLT-4 = type: cell-based; settings: one dose 10^-5 M, 48 h
RPMI-8226 = type: cell-based; settings: one dose 10^-5 M, 48 h
SR = type: cell-based; settings: one dose 10^-5 M, 48 h
A549/ATCC = type: cell-based; settings: one dose 10^-5 M, 48 h
EKVX = type: cell-based; settings: one dose 10^-5 M, 48 h
HOP-62 = type: cell-based; settings: one dose 10^-5 M, 48 h
HOP-92 = type: cell-based; settings: one dose 10^-5 M, 48 h
NCI-H226 = type: cell-based; settings: one dose 10^-5 M, 48 h
NCI-H23 = type: cell-based; settings: one dose 10^-5 M, 48 h
NCI-H460 = type: cell-based; settings: one dose 10^-5 M, 48 h
NCI-H522 = type: cell-based; settings: one dose 10^-5 M, 48 h
COLO 205 = type: cell-based; settings: one dose 10^-5 M, 48 h
HCC-2998 = type: cell-based; settings: one dose 10^-5 M, 48 h
HCT-116 = type: cell-based; settings: one dose 10^-5 M, 48 h
HCT-15 = type: cell-based; settings: one dose 10^-5 M, 48 h
HT29 = type: cell-based; settings: one dose 10^-5 M, 48 h
KM12 = type: cell-based; settings: one dose 10^-5 M, 48 h
SW-620 = type: cell-based; settings: one dose 10^-5 M, 48 h
SF-268 = type: cell-based; settings: one dose 10^-5 M, 48 h
SF-295 = type: cell-based; settings: one dose 10^-5 M, 48 h
SF-539 = type: cell-based; settings: one dose 10^-5 M, 48 h
SNB-19 = type: cell-based; settings: one dose 10^-5 M, 48 h
U251 = type: cell-based; settings: one dose 10^-5 M, 48 h
LOX IMVI = type: cell-based; settings: one dose 10^-5 M, 48 h
MALME-3M = type: cell-based; settings: one dose 10^-5 M, 48 h
M14 = type: cell-based; settings: one dose 10^-5 M, 48 h
MDA-MB-435 = type: cell-based; settings: one dose 10^-5 M, 48 h
SK-MEL-2 = type: cell-based; settings: one dose 10^-5 M, 48 h
SK-MEL-28 = type: cell-based; settings: one dose 10^-5 M, 48 h
SK-MEL-5 = type: cell-based; settings: one dose 10^-5 M, 48 h
UACC-257 = type: cell-based; settings: one dose 10^-5 M, 48 h
UACC-62 = type: cell-based; settings: one dose 10^-5 M, 48 h
IGROV1 = type: cell-based; settings: one dose 10^-5 M, 48 h
OVCAR-3 = type: cell-based; settings: one dose 10^-5 M, 48 h
OVCAR-4 = type: cell-based; settings: one dose 10^-5 M, 48 h
OVCAR-5 = type: cell-based; settings: one dose 10^-5 M, 48 h
OVCAR-8 = type: cell-based; settings: one dose 10^-5 M, 48 h
NCI/ADR-RES = type: cell-based; settings: one dose 10^-5 M, 48 h
SK-OV-3 = type: cell-based; settings: one dose 10^-5 M, 48 h
786-0 = type: cell-based; settings: one dose 10^-5 M, 48 h
A498 = type: cell-based; settings: one dose 10^-5 M, 48 h
ACHN = type: cell-based; settings: one dose 10^-5 M, 48 h
CAKI-1 = type: cell-based; settings: one dose 10^-5 M, 48 h
RXF 393 = type: cell-based; settings: one dose 10^-5 M, 48 h
SN12C = type: cell-based, human; settings: one dose 10^-5 M, 48 h
TK-10 = type: cell-based; settings: one dose 10^-5 M, 48 h
UO-31 = type: cell-based; settings: one dose 10^-5 M, 48 h
PC-3 = type: cell-based; settings: one dose 10^-5 M, 48 h
DU-145 = type: cell-based; settings: one dose 10^-5 M, 48 h
MCF7 = type: cell-based; settings: one dose 10^-5 M, 48 h
MDA-MB-231/ATCC = type: cell-based; settings: one dose 10^-5 M, 48 h
HS 578T = type: cell-based; settings: one dose 10^-5 M, 48 h; HS 578T
BT-549 = type: cell-based; settings: one dose 10^-5 M, 48 h
T-47D = type: cell-based; settings: one dose 10^-5 M, 48 h
MDA-MB-468 = type: cell-based; settings: one dose 10^-5 M, 48 h
[1] = test system: full NCI 60 cell lines panel
Description: 60 different human tumour cell lines-representing leukaemia, melanoma, and malignancies of the lung, colon, brain, ovary, breast, prostate, and kidney are used in the operation of this screen.
Compounds were dissolved in DMSO: glycerol (91) and were kept in a freezer at −70° C. The synthesised compounds were introduced to the culture at a single concentration of 1 0 ^−5 M and left to incubate for 48 h. A protein-binding dye called sulforhodamine B was used to measure end points (SRB).
A mean graph showing the % growth of treated cells is used to represent the one-dose data. The value provided for the One-dose assay represents growth in comparison to the no-drug control and to the number of cells at time zero. This enables the identification of lethality (values between 0 and 100) as well as growth inhibition (values less than 0). A value of 100, for instance, indicates no growth inhibition. A value of 40 would indicate 60% growth inhibition. A value of 0 indicates no net growth over the course of the experiment. A value of −40 would indicate 40% lethality.
Furthermore, the average sensitivity of all cell lines to the compound is termed as the full panel mean graph midpoints (MG-MID). The complete panel mean graph midpoints refers to the average sensitivity of all cell lines to the chemical (MG-MID). A measure of a compound’s selectivity for a given cell line is the ratio created by dividing the full panel mean graph midpoints (MG-MID) concentration by the individual subpanel MG-MID concentrations (obtained as the average sensitivity of all the cell lines in a given subpanel to the test compound).

With “3-Amino-4–(2,4-dichlorophenyl)-1H-pyrazolo[3,4-d] pyrimidine-6-thiol [Compound 3c]” the “% growth” value (CCRF-CEM) was 94.56%, the “% growth” value (HL-60(TB)) was 89.08% and the “% growth” value (K-562) was 105.30%. For the same substance, the “% growth” value (MOLT-4) was 90.06%, the “% growth” value (RPMI-8226) was 108.63% and the “% growth” value (SR) was 97.30%. For the same substance, the “% growth” value (A549/ATCC) was 104.45%, the “% growth” value (EKVX) was 115.88% and the “% growth” value (HOP-62) was 92.49%. The “% growth” value (HOP-92) was 76.20%, the “% growth” value (NCI-H226) was 106.10% and the “% growth” value (NCI-H23) was 103.34%. The “% growth” value (NCI-H460) was 115.81%, the “% growth” value (NCI-H522) was 95.34% and the “% growth” value (COLO 205) was 120.01%. The “% growth” value (HCC-2998) was 103.06%, the “% growth” value (HCT-116) was 112.94% and the “% growth” value (HCT-15) was 111.27%. For the same substance, the “% growth” value (HT29) was 110.65%, the “% growth” value (KM12) was 104.75% and the “% growth” value (SW-620) was 106.47%. The “% growth” value (SF-268) was 108.35%, the “% growth” value (SF-295) was 94.52% and the “% growth” value (SF-539) was 94.60%. The “% growth” value (SNB-19) was 93.39%, the “% growth” value (U251) was 103.99% and the “% growth” value (LOX IMVI) was 106.21%. For the same substance, the “% growth” value (MALME-3M) was 92.32%, the “% growth” value (M14) was 106.66% and the “% growth” value (MDA-MB-435) was 110.71%. For the same substance, the “% growth” value (SK-MEL-2) was 108.60%, the “% growth” value (SK-MEL-28) was 115.84% and the “% growth” value (SK-MEL-5) was 108.42%. For the same substance, the “% growth” value (UACC-257) was 107.51%, the “% growth” value (UACC-62) was 93.81% and the “% growth” value (IGROV1) was 105.59%. For the same substance, the “% growth” value (OVCAR-3) was 109.08%, the “% growth” value (OVCAR-4) was 105.05% and the “% growth” value (OVCAR-5) was 108.30%. The “% growth” value (OVCAR-8) was 109.69%, the “% growth” value (NCI/ADR-RES) was 114.09% and the “% growth” value (SK-OV-3) was 86.72%. For the same substance, the “% growth” value (786-0) was 100.98%, the “% growth” value (A498) was 125.09% and the “% growth” value (ACHN) was 106.88%. For the same substance, the “% growth” value (CAKI-1) was 96.86%, the “% growth” value (RXF 393) was 114.73% and the “% growth” value (SN12C) was 105.03%. The “% growth” value (TK-10) was 146.75%, the “% growth” value (UO-31) was 85.75% and the “% growth” value (PC-3) was 96.81%. The “% growth” value (DU-145) was 119.84%, the “% growth” value (MCF7) was 95.64% and the “% growth” value (MDA-MB-231/ATCC) was 94.87%. For the same substance, the “% growth” value (HS 578T) was 100.24%, the “% growth” value (BT-549) was 100.27% and the “% growth” value (T-47D) was 92.59%. For the same substance, the “% growth” value (MDA-MB-468) was 110.26%, the “activity on all 60 cancer cell lines tested (in words)” value ([1]; one dose) was “weak activity” and the Mean % growth ([1]; one dose 10^-5 M, 48 h, mean over all cell lines) was 104.17%.
